# In patent US4593093A, “Acyl derivatives” (priority 1980, dated 1986):
# Structures can show the parent of a compound that is named as a salt. Where two headings read alike, the source gives them in different places.
# How the values were obtained:
# Escherichia coli [1] = assay: Activity in vitro: minimum inhibitory concentration; format: cell-based
# Proteus mirabilis = assay: as above; format: cell-based
# Proteus morganii = assay: as above; format: cell-based; conditions: Morganella morganii
# Proteus rettgeri = assay: as above; format: cell-based; conditions: Providencia rettgeri
# Proteus inconstans = assay: as above; format: cell-based; conditions: Providencia alcalifaciens
# Proteus vulgaris = assay: as above; format: cell-based
# Klebsiella pseumoniae = assay: as above; format: cell-based
# Serratia marcescens [2] = assay: as above; format: cell-based
# Enterobacter cloacae [3] = assay: as above; format: cell-based
# Enterobacter aerogenes = assay: as above; format: cell-based; conditions: Klebsiella aerogenes
# Citrobacter freundii = assay: as above; format: cell-based
# Pseudomonas aeruginosa [4] = assay: as above; format: cell-based
# Staphylococcus aureus [5] = assay: as above; format: cell-based
# Staphylococcus epidermis = assay: as above; format: cell-based
# Streptococcus faecalis = assay: as above; format: cell-based; conditions: Enterococcus faecalis
# Streptococcus pyogenes [6] = assay: as above; format: cell-based
# Streptococcus pneumoniae = assay: as above; format: cell-based
# Streptococcus viridans = assay: as above; format: cell-based
# Enterobacter cloacae [7] = assay: Activity in vivo: survival of intraperitoneally infected mice; conditions: sc, 96 h; mice infected i.p. with Enterobacter cloacae; s.c. twice, 1 h and 3 h after infection; survival on 4th day; read-out: CD50 (dosage at which 50% of the animals survive)
# Experimental: (§1) Groups of 5 mice are infected intraperitoneally with an aqueous suspension of various pathogens. The test substance in physiological sodium chloride solution is administered subcutaneously twice, i.e. 1 hour and 3 hours after the infection. The number of surviving animals is determined on the 4th day. Various dosages are administered and that dosage at which 50% of the experimental animals survive (CD50, mg/kg) is determined by interpolation.
# Escherichia coli [8] = assay: as above; conditions: sc, 96 h; mice infected i.p. with Escherichia coli; s.c. twice, 1 h and 3 h after infection; survival on 4th day; read-out: CD50 (dosage at which 50% of the animals survive)
# Experimental: as §1
# Haemophilus influenzae = assay: as above; conditions: sc, 96 h; mice infected i.p. with Haemophilus influenzae; s.c. twice, 1 h and 3 h after infection; survival on 4th day; read-out: CD50 (dosage at which 50% of the animals survive)
# Experimental: as §1
# Klebsiella pneumoniae = assay: as above; conditions: sc, 96 h; mice infected i.p. with Klebsiella pneumoniae; s.c. twice, 1 h and 3 h after infection; survival on 4th day; read-out: CD50 (dosage at which 50% of the animals survive)
# Experimental: as §1
# Serratia marcescens [9] = assay: as above; conditions: sc, 96 h, 1 h and 3 h after infection, survival on 4th day, read-out: CD50 (dosage at which 50% of the animals survive)
# Experimental: as §1
# Streptococcus pyogenes [10] = assay: as above; conditions: sc, 96 h; mice infected i.p. with Streptococcus pyogenes; s.c. twice, 1 h and 3 h after infection; survival on 4th day; read-out: CD50 (dosage at which 50% of the animals survive)
# Experimental: as §1
# Pseudomonas aeruginosa [11] = assay: as above; conditions: sc, 96 h; mice infected i.p. with Pseudomonas aeruginosa; s.c. three times, 1 h, 3 h and 5 h after infection; survival on 4th day; read-out: CD50 (dosage at which 50% of the animals survive)
# Experimental: as §1
# *Administered subcutaneously three times: 1 hour, 3 hours and 5 hours
# Neisseria moningitidis = assay: as above; conditions: sc, 96 h; mice infected i.p. with Neisseria moningitidis; s.c. twice, 1 h and 4 h after infection; survival on 4th day; read-out: CD50 (dosage at which 50% of the animals survive)
# Experimental: as §1
# **Administered subcutaneously twice: 1 hour and 4 hours after the […]
# Toxicity, LD50 = conditions: in vivo
# Staphylococcus aureus [12] = assay: Activity in vivo: survival of intraperitoneally infected mice; conditions: sc, 96 h; mice infected i.p. with Staphylococcus aureus; s.c. twice, 1 h and 3 h after infection; survival on 4th day; read-out: CD50 (dosage at which 50% of the animals survive)
# Experimental: as §1
# [13] = Enterobacter aerogenes strain 1
# [14] = Enterobacter aerogenes strain 2
# [15] = Pseudomonas aeruginosa strain 1
# [16] = Pseudomonas aeruginosa strain 3
# [17] = Streptococcus faecalis strain 1
# [18] = Streptococcus faecalis strain 2
# [19] = Streptococcus pyogenes strain 1, read-out: Minimum inhibitory concentration
# [20] = Streptococcus pyogenes strain 2, read-out: Minimum inhibitory concentration
# [21] = mice infected i.p. with Serratia marcescens strain 1, s.c. twice
compound,measurement,setting,value
"CO/N=C(\C(=O)N[C@@H]1C(=O)N2C(C(=O)O)=C(CSc3nc(=O)c(O)nn3C)CS[C@H]12)c1c[se]c(N)n1 [Product C, (6R, 7R)-7-[2-(2-amino-4-selenazolyl)-2-[(Z)-methoxyimino]-acetamido]-3-[[(2,5-dihydro-6-hydroxy-2-methyl-5-oxo-as-triazin-3-yl)thio]methyl]-8-oxo-5-thia-1-azabicyclo[4.2.0]oct-2-ene-2-carboxylic acid disodium salt]",MIC,Escherichia coli [1]; Escherichia coli strain 1,0.1 mg/L
same,MIC,Escherichia coli [1]; Escherichia coli strain 2,0.05 mg/L
same,MIC,Escherichia coli [1]; Escherichia coli strain 3,0.8 mg/L
same,MIC,Escherichia coli [1]; Escherichia coli strain 4,0.4 mg/L
same,MIC,Escherichia coli [1]; Escherichia coli strain 5,0.2 mg/L
same,MIC,Proteus mirabilis; Proteus mirabilis strain 1,0.012 mg/L
same,MIC,Proteus mirabilis; Proteus mirabilis strain 2,0.025 mg/L
same,MIC,Proteus mirabilis; Proteus mirabilis strain 3,1.6 mg/L
same,MIC,Proteus mirabilis; Proteus mirabilis strain 4,0.012 mg/L
same,MIC,Proteus mirabilis; Proteus mirabilis strain 5,0.012 mg/L
same,MIC,Proteus morganii,0.05 mg/L
same,MIC,Proteus rettgeri,0.1 mg/L
same,MIC,Proteus inconstans,0.006 mg/L
same,MIC,Proteus vulgaris,1.6 mg/L
same,MIC,Klebsiella pseumoniae; Klebsiella pseumoniae strain 1,0.1 mg/L
same,MIC,Klebsiella pseumoniae; Klebsiella pseumoniae strain 2,0.05 mg/L
same,MIC,Klebsiella pseumoniae; Klebsiella pseumoniae strain 3,0.1 mg/L
same,MIC,Serratia marcescens [2]; Serratia marcescens strain 1,0.4 mg/L
same,MIC,Serratia marcescens [2]; Serratia marcescens strain 2,1.6 mg/L
same,MIC,Serratia marcescens [2]; Serratia marcescens strain 3,0.1 mg/L
same,MIC,Enterobacter cloacae [3]; Enterobacter cloacae strain 1,> 100 mg/L
same,MIC,Enterobacter cloacae [3]; Enterobacter cloacae strain 2,3.1 mg/L
same,MIC,Enterobacter cloacae [3]; Enterobacter cloacae strain 3,> 100 mg/L
same,MIC,Enterobacter aerogenes; [13],0.1 mg/L
same,MIC,Enterobacter aerogenes; [14],0.1 mg/L
same,MIC,Citrobacter freundii; Citrobacter freundii strain 1,12.5 mg/L
same,MIC,Citrobacter freundii; Citrobacter freundii strain 2,0.1 mg/L
same,MIC,Pseudomonas aeruginosa [4]; [15],3.1 mg/L
same,MIC,Pseudomonas aeruginosa [4]; Pseudomonas aeruginosa strain 2,6.3 mg/L
same,MIC,Pseudomonas aeruginosa [4]; [16],1.6 mg/L
same,MIC,Staphylococcus aureus [5]; Staphylococcus aureus strain 1,3.1 mg/L
same,MIC,Staphylococcus aureus [5]; Staphylococcus aureus strain 2,6.3 mg/L
same,MIC,Staphylococcus aureus [5]; Staphylococcus aureus strain 3,3.1 mg/L
same,MIC,Staphylococcus aureus [5]; Staphylococcus aureus strain 4,6.3 mg/L
same,MIC,Staphylococcus epidermis,3.1 mg/L
same,MIC,Streptococcus faecalis; [17],> 100 mg/L
same,MIC,Streptococcus faecalis; [18],> 100 mg/L
same,MIC,Streptococcus pyogenes [6]; [19],0.05 mg/L
same,MIC,Streptococcus pyogenes [6]; [20],≤ 0.012 mg/L
same,MIC,Streptococcus pneumoniae,0.05 mg/L
same,MIC,Streptococcus viridans,3.1 mg/L
same,ED50,Enterobacter cloacae [7],17 mg/kg
same,ED50,Escherichia coli [8],< 0.003 mg/kg
same,ED50,Haemophilus influenzae,< 0.05 mg/kg
same,ED50,Klebsiella pneumoniae,0.23 mg/kg
same,ED50,Serratia marcescens [9]; [21],0.07 mg/kg
same,ED50,Streptococcus pyogenes [10],0.04 mg/kg
same,ED50,Pseudomonas aeruginosa [11],14 mg/kg
same,ED50,Neisseria moningitidis,< 0.05 mg/kg
same,LD50,"Toxicity, LD50; po",> 5000 mg/kg
same,LD50,"Toxicity, LD50; sc",> 4000 mg/kg
"CO/N=C(\C(=O)N[C@@H]1C(=O)N2C(C(=O)OCOC(=O)C(C)(C)C)=C(C)CS[C@H]12)c1c[se]c(N)n1 [Product H, Methylene (6R, 7R)-7-[2-(2-amino-4-selenazolyl)-2-[(Z)-methoxyimino]-acetamido]-3-methyl-8-oxo-5-thia-1-azabicyclo[4.2.0]oct-2-ene-2-carboxylate pivalate]",ED50,Escherichia coli [8],0.11 mg/kg
same,ED50,Klebsiella pneumoniae,0.44 mg/kg
same,ED50,Staphylococcus aureus [12],> 12 mg/kg
same,ED50,Streptococcus pyogenes [10],0.13 mg/kg
same,ED50,Pseudomonas aeruginosa [11],> 100 mg/kg
same,LD50,"Toxicity, LD50; po",> 5000 mg/kg
"CC1=C(C(=O)[O-])N2C(=O)[C@@H](NC(=O)/C(=N\O)c3c[se]c(N)n3)[C@H]2SC1.[Na+] [Product M, (6R, 7R)-7-[2-[2-amino-4-selenazolyl]-2-[(Z)-hydroxyimino]-acetamido]-3-methyl-8-oxo-5-thia-1-azabicyclo[4.2.0]oct-2-ene-2-carboxylic acid sodium salt]",MIC,Escherichia coli [1]; Escherichia coli strain 1,0.8 mg/L
same,MIC,Escherichia coli [1]; Escherichia coli strain 2,0.4 mg/L
same,MIC,Escherichia coli [1]; Escherichia coli strain 3,50 mg/L
same,MIC,Escherichia coli [1]; Escherichia coli strain 4,200 mg/L
same,MIC,Escherichia coli [1]; Escherichia coli strain 5,3.1 mg/L
same,MIC,Proteus mirabilis; Proteus mirabilis strain 3,0.8 mg/L
same,MIC,Proteus mirabilis; Proteus mirabilis strain 4,6.3 mg/L
same,MIC,Proteus mirabilis; Proteus mirabilis strain 5,1.6 mg/L
same,MIC,Proteus morganii,100 mg/L
same,MIC,Proteus rettgeri,0.2 mg/L
same,MIC,Proteus inconstans,0.05 mg/L
same,MIC,Klebsiella pseumoniae; Klebsiella pseumoniae strain 1,0.8 mg/L
same,MIC,Klebsiella pseumoniae; Klebsiella pseumoniae strain 2,0.4 mg/L
same,MIC,Klebsiella pseumoniae; Klebsiella pseumoniae strain 3,0.4 mg/L
same,MIC,Serratia marcescens [2]; Serratia marcescens strain 1,25 mg/L
same,MIC,Serratia marcescens [2]; Serratia marcescens strain 2,100 mg/L
same,MIC,Serratia marcescens [2]; Serratia marcescens strain 3,6.3 mg/L
same,MIC,Enterobacter cloacae [3]; Enterobacter cloacae strain 1,> 200 mg/L
same,MIC,Enterobacter cloacae [3]; Enterobacter cloacae strain 2,> 200 mg/L
same,MIC,Enterobacter cloacae [3]; Enterobacter cloacae strain 3,> 200 mg/L
same,MIC,Enterobacter aerogenes; [13],0.4 mg/L
same,MIC,Enterobacter aerogenes; [14],1.6 mg/L
same,MIC,Citrobacter freundii; Citrobacter freundii strain 1,100 mg/L
same,MIC,Citrobacter freundii; Citrobacter freundii strain 2,1.6 mg/L
same,MIC,Pseudomonas aeruginosa [4]; [15],> 400 mg/L
same,MIC,Pseudomonas aeruginosa [4]; [16],> 400 mg/L
same,MIC,Staphylococcus aureus [5]; Staphylococcus aureus strain 1,3.1 mg/L
same,MIC,Staphylococcus aureus [5]; Staphylococcus aureus strain 2,6.3 mg/L
same,MIC,Staphylococcus aureus [5]; Staphylococcus aureus strain 3,3.1 mg/L
same,MIC,Staphylococcus aureus [5]; Staphylococcus aureus strain 4,6.3 mg/L
same,MIC,Staphylococcus epidermis,3.1 mg/L
same,MIC,Streptococcus faecalis; [17],200 mg/L
same,MIC,Streptococcus faecalis; [18],> 200 mg/L
same,MIC,Streptococcus pyogenes [6]; [19],1.6 mg/L
same,MIC,Streptococcus pyogenes [6]; [20],0.1 mg/L
same,MIC,Streptococcus pneumoniae,6.3 mg/L
same,MIC,Streptococcus viridans,25 mg/L
same,ED50,Escherichia coli [8],1 mg/kg
same,ED50,Serratia marcescens [9]; [21],3.5 mg/kg
same,ED50,"Serratia marcescens [9]; mice infected i.p. with Serratia marcescens strain 2, s.c. twice",> 50 mg/kg
same,ED50,Staphylococcus aureus [12],2.7 mg/kg
same,ED50,Streptococcus pyogenes [10],0.28 mg/kg
